Experimental data published in patent US8802664B2 (Bioproject, priority 2010, dated 2014).

biological target: T1, human H4 receptor (Homo sapiens, UniProt Q9H3N8); test: [3H]Histamine binding on membranes of CHO cells stably expressing human H4 receptor
T1 construct: expressed in transfected cells
Description: CHO cells stably expressing human H4 receptor were grown until sub-confluence and centrifuged at 300 g 15 minutes at 4° C. Pellets were resuspended in buffer I Tris-HCl 50 mM, MgCl2 10 mM, NaCl 140 mM, pH=7.4 supplemented by a 1/50 dilution of a mix of protease inhibitors. The obtained suspension is stirred gently and submitted to a […] exerted through a syringe. The cell lysate is then centrifuged at 300 g 15 minutes at 4° C. in order to eliminate nucleus and cell scraps. The obtained supernatant was then centrifuged at 48000 g for 30 minutes at 4° C. The final pellet is resuspended in buffer I with a potter homogenizer. Aliquots were frozen in liquid nitrogen and stored until use at −80° C. Protein content is measured by the Bradford method.
Defreezed membranes were diluted at a final concentration of 20 μg/180 μL/well in a binding buffer containing 50 mM Tris/HCl, 0.5 mM EDTA, pH=7.4 and distributed in 96 well polystyrene microplate. [^3H] […] Non specific binding was estimated in the presence of 10 μM BP1.2404 (JNJ 7777120). The reaction was terminated by filtration through GF/B filters pre-soaked 2 hours at 4° C. in […]. Filters were rinsed 3 times with 250 μl of ice cold incubation binding buffer.
The filter-bound radioactivity was measured in a liquid scintillation counter Microbeta TRILUX® with 50 μl of scintillation fluid.
The hH4 binding investigated by use of [^3H]

Ki or IC50 activity class, < 300 nM:
CN1CCC(OC(c2cccc(CCCNC(=O)OC(C)(C)C)c2)c2nc3ccccc3[nH]2)CC1 (centres unmarked) [Example 313, N-tert-butoxycarbonyl-N′-(3-{3-[(1H-benzimidazol-2-yl)(1-methylpiperidin-4-yloxy)methyl]phenyl}propyl)amine]
CNC(=O)CSc1cccc(C(OC2CCN(C)CC2)c2nc3ccccc3s2)c1 (centres unmarked) [Example 259, 2-{3-[benzothiazol-2-yl(1-methylpiperidin-4-yloxy)methyl]phenylsulfanyl}-N-methylacetamide]
CN1CCC(OC(c2cccc(OCCCF)c2)c2nc3ccccc3[nH]2)CC1 (centres unmarked) [Example 475]
Cc1ccc(C(OC2CCN(C)CC2)c2nc3ccccc3s2)s1 (centres unmarked) [Example 19, 2-[(1-methylpiperidin-4-yloxy)(5-methylthiophen-2-yl)methyl]benzothiazole]
CN1CCC(COC(c2cccc(C#CCCCN)c2)c2nc3cc(F)ccc3[nH]2)C1 (centres unmarked) [Example 462]
CCOCCOc1cccc(C(NC2CCN(C)CC2)c2nc3ccccc3[nH]2)c1 (centres unmarked) [Example 134, {(1H-benzimidazol-2-yl)[3-(2-ethoxyethoxy)phenyl]methyl}(1-methylpiperidin-4-yl)amine]
C=CCCCOc1cccc(C(OC2CCN(C)CC2)c2nc3ccccc3s2)c1 (centres unmarked) [Example 168, 2-[(1-methylpiperidin-4-yloxy)(3-pent-4-enyloxy-phenyl)methyl]benzothiazole]
CN1CCC(OC(c2cccc(OCc3cccnc3)c2)c2nc3ccccc3s2)CC1 (centres unmarked) [Example 284, 2-{(1-methylpiperidin-4-yloxy)[3-(pyridin-3-ylmethoxy)phenyl]methyl}benzothiazole]

Ki or IC50 activity class, < 1000 nM:
CN1CCC(OC(c2cccc(N3CCCC3CO)c2)c2nc3ccccc3s2)CC1 (centres unmarked) [Example 323, (1-{3-[benzothiazol-2-yl(1-methylpiperidin-4-yloxy)methyl]phenyl}pyrrolidin-2-yl)methanol]
CN1CCC(OC(c2cccc(OCCCCCNCC(=O)OC(C)(C)C)c2)c2nc3ccccc3s2)CC1 (centres unmarked) [Example 375, (5-{3-[benzothiazol-2-yl(1-methylpiperidin-4-yloxy)methyl]phenoxy}pentylamino)acetic acid tert-butyl ester]
CN1CCC(OC(c2cccc(OCCCN3CCOCC3)c2)c2nc3ccccc3s2)CC1 (centres unmarked) [Example 350, 2-{(1-methylpiperidin-4-yloxy)[3-(3-morpholin-4-yl-propoxy)phenyl]methyl}benzothiazole]
CN1CCC(OC(c2cccc(N3CC4CN(C)CC4C3)c2)c2nc3ccccc3s2)CC1 (centres unmarked) [Example 485]
CN1CCC(OC(c2cccc(C=C3NC(=N)NC3=O)c2)c2nc3ccccc3[nH]2)CC1 (centres unmarked) [Example 505, 5-{3-[(1H-benzimidazol-2-yl)(1-methylpiperidin-4-yloxy)methyl]benzylidene}-2-iminoimidazolidin-4-one]
Cc1cccc(C(NC2CCN(C)CC2)c2nc3ccccc3[nH]2)c1 (centres unmarked) [Example 84, [(1H-benzimidazol-2-yl)(m-tolyl)methyl](1-methylpiperidin-4-yl)amine]

Ki or IC50 activity class, < 30 nM:
CN1CCC(OC(c2cccc(SCCCCO)c2)c2nc3ccccc3s2)CC1 (centres unmarked) [Example 256, 4-{3-[benzothiazol-2-yl(1-methylpiperidin-4-yloxy)methyl]phenylsulfanyl}butan-1-ol]
CN1CCC(NC(c2cccc(SCc3ccccc3)c2)c2nc3ccccc3s2)CC1 (centres unmarked) [Example 107, [benzothiazol-2-yl(3-benzylsulfanylphenyl)methyl](1-methylpiperidin-4-yl)amine]
Cc1ccc(C(OC2CCN(C)CC2)c2nc3ccccc3[nH]2)cc1 (single isomer, unassigned) [Example 253, 2-[(1-methylpiperidin-4-yloxy)-p-tolylmethyl]-1H-benzimidazole]
